# According to patent US9801901B2, “Alginate oligomers for use in overcoming multidrug resistance in bacteria” (priority 2009, dated 2017):
# Like-named read-outs stand apart in the source and are kept apart here. Marks after values point to notes of the source that are not given here.
# Experiments:
# V22 6056 Acinetobacter = assay: MIC assay, CAMHB with alginate oligomer, no visible growth; assay type: cell-based, Acinetobacter lwoffii; conditions: Table 5, V22 MDR Acin. lwoff
# MDR Providencia stuartii = assay: MIC-assay, Mueller-Hinton broth with G-block alginate, 384-well, OD600 (Table 11); assay type: cell-based; conditions: Providencia stuartii (IR57 India, V7) MDR
# Source text: Minimum inhibitory concentration (MICs) of different antibiotics for strains of E. coli and Providencia stuartii displaying MDR phenotypes in the presence of varying concentrations of OligoCF-5/20 (0-10%). (MIC values are expressed in μg ml^−1).
# [1] = tested on: Burkholderia cepacia (LMG18941, ATCC-BAA-246); assay: MIC-assay, Mueller-Hinton broth with G-block alginate, 384-well, OD600
# [2] = tested on: Burkholderia cepacia (1322, V23); assay: as above; conditions: Table 8, G-block (OligoCF-5/20) 10%
# [3] = tested on: Pseudomonas aeruginosa ATCC 39324, mucoid type strain (R79); assay: MIC assay, CAMHB with alginate oligomer, no visible growth; assay type: cell-based; conditions: Pseudomonas aeruginosa, ATCC39324, Table 4, R79 non MDR (muc.), read-out: MIC
# [4] = tested on: Pseudomonas aeruginosa MDR 301 from Poland (V2); assay: as above; assay type: cell-based; conditions: Pseudomonas aeruginosa, Table 4, V2 MDR (Pol.), read-out: MIC
# [5] = tested on: V9 (Egypt) Acinetobacter baumannii; assay: as above; assay type: cell-based; conditions: Table 5, V9 MDR Acin. baum
# [6] = tested on: Pseudomonas aeruginosa CFA 24-1, clinical mucoid strain (R80); assay: as above; assay type: cell-based; conditions: Pseudomonas aeruginosa, Table 4, R80 non MDR (muc.), read-out: MIC
# Streptococcus oralis = assay: MIC-assay, Mueller-Hinton broth with G-block alginate, 384-well, OD600 (Table 12); assay type: cell-based; conditions: Streptococcus oralis (5610, V17) MDR
# Source text: (§1) Minimum inhibitory concentration (MICs) of different antibiotics for strains of Streptococcus oralis and Staphylococcus aureus (MRSA) displaying MDR phenotypes in the presence of varying concentrations of OligoCF-5/20 (0-10%). (MIC values are expressed in μg ml^−1).
# [7] = tested on: Staphylococcus aureus (MRSA) U50; assay: as above; assay type: cell-based; conditions: MRSA 1040s, U50 MDR
# Source text: as §1
# [8] = tested on: Pseudomonas aeruginosa (R22, PSA, V1); assay: MIC-assay, Mueller-Hinton broth with G-block alginate, 384-well, OD600; conditions: Table 8, G-block (OligoCF-5/20) 0%
# [9] = tested on: Acinetobacter baumannii (MDR ACB, Libya, V4); assay: as above
# [10] = tested on: strains of Klebsiella pneumoniae displaying MDR phenotypes; assay: MIC-assay, Mueller-Hinton broth with G-block alginate, 384-well, OD600 (Table 10); assay type: cell-based; conditions: Klebsiella pneumoniae (K3, India, V8) MDR
# Source text: Minimum inhibitory concentration (MICs) of different antibiotics for strains of Klebsiella pneumoniae displaying MDR phenotypes in the presence of varying concentrations of OligoCF-5/20 (0-10%). (MIC values are expressed in μg ml^−1).
# [11] = tested on: Pseudomonas aeruginosa MDR R22 from China (V1); assay: MIC assay, CAMHB with alginate oligomer, no visible growth; assay type: cell-based; conditions: Pseudomonas aeruginosa, Table 4, V1 MDR (China), read-out: MIC
# Source text: The study described in Example 1 was repeated with the following strains of bacteria and antibiotics as detailed in Tables 4, 5 and 6.
# [12] = tested on: V12 5725 (Wales) Klebsiella pneumoniae; assay: as above; assay type: cell-based; conditions: Table 5, V12 MDR Kleb pneu
# [13] = G-block (OligoCF-5/20) 0%, read-out: MIC
# [14] = G-block (OligoCF-5/20) 2%, read-out: MIC
structure (smiles),measurement,setting,value
CC[C@H]1OC(=O)[C@H](C)[C@@H](O[C@H]2C[C@@](C)(OC)[C@@H](O)[C@H](C)O2)[C@H](C)[C@@H](O[C@@H]2O[C@H](C)C[C@H](N(C)C)[C@H]2O)[C@](C)(O)C[C@@H](C)C(=O)[C@H](C)[C@@H](O)[C@]1(C)O [Erythromycin],MIC,"V22 6056 Acinetobacter; Acinetobacter, OligoCF-5/20 0G, read-out: MIC",< 0.5 µg/mL
same,MIC,V22 6056 Acinetobacter; OligoCF-5/20 +2% G,<0.5 µg/mL
same,MIC,V22 6056 Acinetobacter; OligoCF-5/20 +6% G,<0.5 µg/mL
same,MIC,V22 6056 Acinetobacter; OligoCF-5/20 +10% G,<0.5 µg/mL
same,MIC,MDR Providencia stuartii; G-block (OligoCF-5/20) 0%,32 µg/mL
same,MIC,MDR Providencia stuartii; G-block (OligoCF-5/20) 2%,16 µg/mL
same,MIC,MDR Providencia stuartii; G-block (OligoCF-5/20) 6%,16 µg/mL
same,MIC,MDR Providencia stuartii; G-block (OligoCF-5/20) 10%,16 µg/mL
same,MIC,"[1]; ATCCBAA246|LMG18941, Table 8, G-block (OligoCF-5/20) 6%",64 µg/mL
same,MIC,"[1]; ATCCBAA246|LMG18941, Table 8, G-block (OligoCF-5/20) 10%",64 µg/mL
same,MIC,[2],64 µg/mL
same,MIC,[3]; OligoCF-5/20 0G,128 µg/mL
same,MIC,[3]; OligoCF-5/20 +2% G,64 µg/mL
same,MIC,[3]; OligoCF-5/20 +6% G,32 µg/mL
same,MIC,[3]; OligoCF-5/20 +10% G,2 µg/mL
same,MIC,[4]; OligoCF-5/20 0G,128 µg/mL
same,MIC,[4]; OligoCF-5/20 +6% G,64 µg/mL
same,MIC,[4]; OligoCF-5/20 +10% G,16 µg/mL
same,MIC,"[5]; Acinetobacter baumannii, OligoCF-5/20 0G, read-out: MIC",8 µg/mL
same,MIC,[5]; OligoCF-5/20 +2% G,4^† μg/ml
same,MIC,[5]; OligoCF-5/20 +6% G,1^† μg/ml
same,MIC,[5]; OligoCF-5/20 +10% G,<0.5^† μg/ml
same,MIC,[6]; OligoCF-5/20 0G,512 µg/mL
same,MIC,[6]; OligoCF-5/20 +6% G,128 µg/mL
same,MIC,[6]; OligoCF-5/20 +10% G,32 µg/mL
same,MIC,Streptococcus oralis; [13],2 µg/mL
same,MIC,Streptococcus oralis; [14],16 µg/mL
same,MIC,Streptococcus oralis; G-block (OligoCF-5/20) 6%,0.0312 µg/mL
same,MIC,Streptococcus oralis; G-block (OligoCF-5/20) 10%,0.0625 µg/mL
same,MIC,[7]; [13],> 1020 µg/mL
same,MIC,[7]; [14],> 1020 µg/mL
same,MIC,[7]; G-block (OligoCF-5/20) 6%,1020 µg/mL
same,MIC,[7]; G-block (OligoCF-5/20) 10%,512 µg/mL
same,MIC,[8],> 512 µg/mL
same,MIC,"[9]; Table 9, G-block (OligoCF-5/20) 0%",32 µg/mL
same,MIC,"[9]; Table 9, G-block (OligoCF-5/20) 2%",8 µg/mL
same,MIC,"[9]; Table 9, G-block (OligoCF-5/20) 6%",4 µg/mL
same,MIC,"[9]; Table 9, G-block (OligoCF-5/20) 10%",2 µg/mL
same,MIC,[10]; G-block (OligoCF-5/20) 0%,128 µg/mL
same,MIC,[10]; G-block (OligoCF-5/20) 2%,128 µg/mL
same,MIC,[10]; G-block (OligoCF-5/20) 6%,128 µg/mL
same,MIC,[10]; G-block (OligoCF-5/20) 10%,128 µg/mL
same,MIC,[11]; OligoCF-5/20 0G,128 µg/mL
same,MIC,[11]; OligoCF-5/20 +6% G,64 µg/mL
same,MIC,[11]; OligoCF-5/20 +10% G,32 µg/mL
same,MIC,"[12]; Klebsiella pneumoniae, OligoCF-5/20 0G, read-out: MIC",512 µg/mL
same,MIC,[12]; OligoCF-5/20 +6% G,512 µg/mL
same,MIC,[12]; OligoCF-5/20 +10% G,512 µg/mL
